Data taken from US20080269170A1, “Novel 2,4-Dianilinopyrimidine Derivatives, the Preparation Thereof, Their Use as Medicaments, Pharmaceutical Compositions and, in Particular, as IKK Inhibitors” (sanofi-aventis, priority 2005, published 2008).

Point of comparison: C#CCN(C1CCN(C)CC1)S(=O)(=O)c1ccc(Nc2nccc(Nc3ccc(F)cc3)n2)cc1 [Example 148, 4-({4-[(4-Fluorophenyl)amino]pyrimidin-2-yl}amino)-N-propargyl-N-(1-methylpiperidin-4-yl)-benzenesulfonamide], melting point 187 °C. Against it:
- Cc1cc(Nc2ccnc(Nc3ccc(S(=O)(=O)N(C)C4CCCN(C)C4)cc3)n2)ccc1F (centres unmarked) [Example 139, 4-({4-[(4-Fluoro-3-methylphenyl)amino]-pyrimidin-2-yl}amino)-N-methyl-N-(1-methylpiperidin-3-yl)benzenesulfonamide] — higher, 188 °C
- CN(C)C1CCC(N(C)S(=O)(=O)c2ccc(Nc3nccc(Nc4ccc(F)cc4)n3)cc2)CC1 (stereo not drawn) [Example 140, 4-({4-[(4-Fluorophenyl)amino]pyrimidin-2-yl}amino)-N-methyl-N-[4-cis(dimethylamino)cyclohexyl]-benzenesulfonamide] — higher, 222 °C
- CN(C)C1CCC(N(C)S(=O)(=O)c2ccc(Nc3nccc(Nc4ccc(F)cc4)n3)cc2)CC1 (stereo not drawn) [Example 141, 4-({4-[(4-Fluorophenyl)amino]pyrimidin-2-yl}amino)-N-methyl-N-[4-trans(dimethylamino)cyclo-hexyl]benzenesulfonamide] — higher, 218 °C
- CCNC1CCC(N(C)S(=O)(=O)c2ccc(Nc3nccc(Nc4ccc(F)cc4)n3)cc2)CC1 (stereo not drawn) [Example 142, 4-({4-[(4-Fluorophenyl)amino]pyrimidin-2-yl}amino)-N-methyl-N-[4-cis(ethylamino)cyclohexyl]-benzenesulfonamide] — higher, 188 °C
- CCNC1CCC(N(C)S(=O)(=O)c2ccc(Nc3nccc(Nc4ccc(F)cc4)n3)cc2)CC1 (stereo not drawn) [Example 143, 4-({4-[(4-Fluorophenyl)amino]pyrimidin-2-yl}amino)-N-methyl-N-[4-trans(ethylamino)cyclohexyl]-benzenesulfonamide] — lower, 178 °C
- CSCCNC1CCC(N(C)S(=O)(=O)c2ccc(Nc3nccc(Nc4ccc(F)cc4)n3)cc2)CC1 (stereo not drawn) [Example 144, 4-({4-[(4-Fluorophenyl)amino]pyrimidin-2-yl}amino)-N-methyl-N-[4-cis(2-methylsulfanylethyl-amino)cyclohexyl]benzenesulfonamide] — lower, 146 °C
- CSCCNC1CCC(N(C)S(=O)(=O)c2ccc(Nc3nccc(Nc4ccc(F)cc4)n3)cc2)CC1 (stereo not drawn) [Example 145, 4-({4-[(4-Fluorophenyl)amino]pyrimidin-2-yl}amino)-N-methyl-N-[4-trans(2-methylsulfanylethyl-amino)cyclohexyl]benzenesulfonamide] — lower, 171 °C
- CNC1CCC(N(CCN2CCCC2)S(=O)(=O)c2ccc(Nc3nccc(Nc4ccc(F)cc4)n3)cc2)CC1 (stereo not drawn) [Example 146, 4-({4-[(4-Fluorophenyl)amino]pyrimidin-2-yl}amino)-N-(4-cis(methylamino)cyclohexyl)-N-(2-pyrrolidin-1-ylethyl)benzenesulfonamide] — higher, 189 °C
- CNC1CCC(N(CCN2CCCC2)S(=O)(=O)c2ccc(Nc3nccc(Nc4ccc(F)cc4)n3)cc2)CC1 (stereo not drawn) [Example 147, 4-({4-[(4-Fluorophenyl)amino]pyrimidin-2-yl}amino)-N-(4-trans(methylamino)cyclohexyl)-N-(2-pyr-rolidin-1-ylethyl)benzenesulfonamide] — lower, 128 °C
- CCN(C1CCN(C)CC1)S(=O)(=O)c1ccc(Nc2nccc(Nc3ccc(F)cc3)n2)cc1 [Example 149, 4-({4-[(4-Fluorophenyl)amino]pyrimidin-2-yl}amino)-N-ethyl-N-(1-methylpiperidin-4-yl)benzene-sulfonamide] — lower, 154 °C
- CN(C1CCN(C2CC2)CC1)S(=O)(=O)c1ccc(Nc2nccc(Nc3ccc(F)cc3)n2)cc1 [Example 150, N-(1-Cyclopropylpiperidin-4-yl)-4-({4-[(4-fluorophenyl)amino]pyrimidin-2-yl}amino)-N-methyl-benzenesulfonamide] — lower, 125 to 128 °C
- CN1CCC(N(CC[C@H]2CCCN2)S(=O)(=O)c2ccc(Nc3nccc(Nc4ccc(F)cc4)n3)cc2)CC1 [Example 153, 4-({4-[(4-Fluorophenyl)amino]pyrimidin-2-yl}amino)-N-(1-methylpiperidin-4-yl)-N-{2-[(2R)-pyrrol-idin-2-yl]ethyl}benzenesulfonamide] — lower, 85 °C
- COc1cc(Nc2ccnc(Nc3ccc(S(=O)(=O)N(CCN4CCCC4)C4CCN(C5CC5)CC4)cc3)n2)ccc1F [Example 156] — lower, 139 °C
- CN1CCC(N(Cc2cccn2C)S(=O)(=O)c2ccc(Nc3nccc(Nc4ccc(F)cc4)n3)cc2)CC1 [Example 161, 4-({4-[(4-Fluorophenyl)amino]pyrimidin-2-yl}amino)-N-(1-methylpiperidin-4-yl)-N-[(1-methyl-1H-pyrrol-2-yl)methyl]benzenesulfonamide] — lower, 129 °C
- CN1CCC(N(C)S(=O)(=O)c2ccc(Nc3nccc(Nc4cc(F)c(F)c(F)c4)n3)cc2)CC1 [Example 162, 4-[4-(3,4,5-Trifluorophenylamino)pyrimidin-2-ylamino]-N-methyl-N-(1-methylpiperidin-4-yl)benzenesulfonamide] — higher, 226.9 °C
- CN(C1CCN(CCS(C)(=O)=O)CC1)S(=O)(=O)c1ccc(Nc2nccc(Nc3ccc(F)c(F)c3)n2)cc1 [Example 163, 4-({4-[(3,4-Difluorophenyl)amino]pyrimidin-2-yl}amino)-N-methyl-N-{1-[2-(methyl-sulfonyl)ethyl]piperidin-4-yl}benzenesulfonamide] — higher, 204 °C
- CN(C1CCN(Cc2cccn2C)CC1)S(=O)(=O)c1ccc(Nc2nccc(Nc3ccc(F)c(F)c3)n2)cc1 [Example 164, 4-({4-[(3,4-Difluorophenyl)amino]pyrimidin-2-yl}amino)-N-methyl-N-{1-[(1-methyl-1H-pyrrol-2-yl)methyl]piperidin-4-yl)benzenesulfonamide] — lower, 149 to 152 °C
- CN(C1CCN(Cc2csnn2)CC1)S(=O)(=O)c1ccc(Nc2nccc(Nc3ccc(F)c(F)c3)n2)cc1 [Example 165, 4-({4-[(3,4-Difluorophenyl)amino]pyrimidin-2-yl}amino)-N-methyl-N-(1-{[1-(1,2,3)thiadiazol-4-yl]methyl}piperidin-4-yl)benzenesulfonamide] — lower, 172 to 173 °C
- Cc1cc(CN2CCC(N(C)S(=O)(=O)c3ccc(Nc4nccc(Nc5ccc(F)c(F)c5)n4)cc3)CC2)no1 [Example 166, 4-({4-[(3,4-Difluorophenyl)amino]pyrimidin-2-yl}amino)-N-methyl-N-{1-[(5-methylisoxazol-3-yl)methyl]piperidin-4-yl}benzenesulfonamide] — higher, 204 to 206 °C
- CN(C1CCN(CC(C)(C)O)CC1)S(=O)(=O)c1ccc(Nc2nccc(Nc3ccc(F)c(F)c3)n2)cc1 [Example 167, 4-[4-(3,4-Difluorophenylamino)pyrimidin-2-ylamino]-N-[1-(2-hydroxy-2-methylpropyl)piperidin-4-yl]-N-methylbenzenesulfonamide] — higher, 234 to 235 °C
- Cc1cc(Nc2ccnc(Nc3ccc(S(=O)(=O)N(Cc4ccco4)C4CCC(=O)CC4)cc3)n2)ccc1F [Example 168] — lower, 184 °C
- Cc1cc(Nc2ccnc(Nc3ccc(S(=O)(=O)N(CC4CCCO4)C4CCC(=O)CC4)cc3)n2)ccc1F (centres unmarked) [Example 169] — higher, 189 °C
